Test results as given in ChEMBL document CHEMBL3507680, “University of Dundee, Gates Library screen for HepG2 cell viability”.

Experiment: Human HepG2 cell viability assay in 384 well format
Assay type: toxicity, cell-based
Parameters: dose 125 nL, time 70.5 hour; concentration not given beside the values
Conditions: HepG2 cells, read-out: Inhibition

| Compound | cytotoxicity at 70.5 h |
| --- | --- |
| Cn1nc(C2CCCN2)c2c(C(=O)NC3CC3)cc(C3CC3)nc21 (configuration not stated) | 20% |
| Cn1nc(C2CCCNC2)c2c(C(=O)NC3CC3)cc(C3CC3)nc21 (configuration not stated) | 13.4% |
| CS(=O)(=O)N1CC2(CCCN2Cc2ccc(Cl)cc2)Cc2ccccc21 (configuration not stated) | 7.7% |
| CC(=O)N1CC2(CCN(Cc3ccc(Cl)cc3)C2)Cc2ccccc21 (configuration not stated) | 5.14% |
| O=C(NCc1nnc2n1C(C(=O)NC1CC1)CC2)c1ccc(Cl)cc1Cl (configuration not stated) | 4.24% |
| O=S1(=O)NC2(CCCN(CCc3ccccc3)C2)COc2ccccc21 (configuration not stated) | 0.68% |
| CC(=O)N1CCN(c2ccc(Cl)nn2)C(=O)C1 | -7.52% |
| CC(C)NC(=O)N1CCN(c2ccc(Cl)nn2)C(=O)C1 | -4.88% |
| O=C(N1CCCC1)N1CCN(c2ccc(Cl)nn2)C(=O)C1 | -7.98% |
| Cc1ccc(CN2CCCC23Cc2ccccc2CNC3=O)cc1 (configuration not stated) | 21.9% |
| CS(=O)(=O)N1Cc2ccccc2CC2(CCN(Cc3ccccc3)C2)C1 (configuration not stated) | -9.03% |
| CS(=O)(=O)N1CC2(CCN(Cc3ccccn3)C2)Cc2ccccc21 (configuration not stated) | -8% |
| CS(=O)(=O)N1CC2(CCN(CC3CC3)C2)Cc2ccccc21 (configuration not stated) | -6.8% |
| CS(=O)(=O)N1CC2(CCN(C3CCCCC3)CC2)Cc2ccccc21 | -7.63% |
| O=C1Nc2ccccc2CN(C/C=C/c2ccccc2)C12CCNC2 (configuration not stated) | 2.42% |
| CCCN1Cc2ccccc2NC(=O)C12CCNC2 (configuration not stated) | -1.87% |
| O=C1NCc2ccccc2CC12CCN(Cc1ccccc1Cl)CC2 | -3.39% |
| COc1ccccc1CN1CCCC2(Cc3ccccc3CNC2=O)C1 (configuration not stated) | -1.54% |
| O=C(O)c1ccccc1CN1CCC2(Cc3ccccc3CNC2=O)C1 (configuration not stated) | -5.35% |

| Compound | cytotoxicity at 70.5 h |
| --- | --- |
| O=C1NCc2ccccc2CC12CCCN(CCCc1ccccc1)C2 (configuration not stated) | -3.38% |
| Cc1cccc(CN2CCCC3(Cc4ccccc4CNC3=O)C2)n1 (configuration not stated) | -5.77% |
| Cn1nc(C2CCNC2)c2c(C(=O)NCC(F)(F)F)cc(C3CC3)nc21 (configuration not stated) | -7.49% |
| O=C(c1ccc(Cl)cc1)N1CCC(N2CCCNC2=O)CC1 | -6.78% |
| O=C(c1ccc(Cl)cc1)N1CCC(N2CCCCC2=O)CC1 | -7.46% |
| O=C(c1ccc(Cl)s1)N1CCC2(CNS(=O)(=O)c3cnccc3O2)C1 (configuration not stated) | 19.5% |
| O=C(c1cccnc1)N1CCC2(CNS(=O)(=O)c3cnccc3O2)C1 (configuration not stated) | 17.8% |
| CC(C)NC(=O)N1CCC(c2nnc3n2CCNC3)CC1 | 16.3% |
| O=S1(=O)NCC2(CCCN(Cc3ccccn3)C2)Oc2ncccc21 (configuration not stated) | 30.8% |
| CN1CCC2(Cc3ccccc3CN(C(=O)Cc3cccc(Cl)c3)C2)C1 (configuration not stated) | 30.2% |
| CCCC(=O)N1Cc2ccccc2CC2(CCN(C)C2)C1 (configuration not stated) | 22.5% |
| O=C1Nc2ccccc2CC12CCCN2Cc1ccc(F)cc1 (configuration not stated) | 9.33% |
| O=C1Nc2ccccc2CC12CCCN2Cc1cccnc1 (configuration not stated) | -2.78% |
| CC(C)NC(=O)C1CCc2nnc(C(C)(C)C)n21 (configuration not stated) | -5.68% |
| CN1CC(=O)N(C2CCNCC2)Cc2c(NC3CCC3)ncnc21 | -7.06% |
| Cc1nc(C(NC(=O)CN(C)C(C)C)c2ccccc2F)no1 (configuration not stated) | -4.07% |
| COc1cc(Br)c(CNc2ccn(CCC(N)=O)n2)cc1OC | -4.79% |
| Cn1cc(N2CCN(c3ccc(C#N)cc3F)CC2=O)cn1 | -3.17% |
| NC(=O)NC1(C(=O)N2CCc3c(Cl)cccc3C2)CCCCC1 | 8.62% |

| Compound | cytotoxicity at 70.5 h |
| --- | --- |
| CN(Cc1nc2ccccc2[nH]1)C(=O)CN(C)c1ccccc1 | -2.68% |
| NC(=O)NC1CCN(Cc2ccc3c(c2)CCC3)CC1 | -5.94% |
| CC(C)(C)NC(=O)c1cnc2n1CCCC2 | -6.71% |
| Cc1ccc(F)c(CNc2ccn(CCC(N)=O)n2)c1 | 3.53% |
| CN(Cc1cc(Br)cn1C)C(=O)Cc1cccnc1 | -9.83% |
| COc1ccc2c(c1)CCCC2CC(=O)NCC(=O)O (configuration not stated) | -4.55% |
| Cn1ccc(N2CCCC(NC(=O)c3ccc(Cl)o3)C2=O)n1 (configuration not stated) | -10.2% |
| COc1ccc2c(c1)CCCC2CC(=O)NCC(C)(C)C(=O)O (configuration not stated) | -10.7% |
| CCC(C)(CC(=O)OC)NCc1nc(C)no1 (configuration not stated) | 28.3% |
| CCC(C)(CC(=O)OC)NCc1cc(C)on1 (configuration not stated) | -11% |
| CN1CCN(C(=O)C2(S(C)(=O)=O)CCCC2)Cc2ccccc21 | -13.4% |
| N#Cc1cccc(NC(=O)N[C@H](CO)Cc2ccc(O)cc2)c1 | -9.73% |
| Cc1cc(N2CCCC2c2cccnc2)nc(C)n1 (configuration not stated) | 5.57% |
| CCN1CCN2CCCN(S(=O)(=O)c3ccc(C)cc3C)C2C1=O (configuration not stated) | -4.62% |
| CCN1CCN2CCCN(S(=O)(=O)c3ccc(S(C)(=O)=O)cc3)C2C1=O (configuration not stated) | -7.94% |
| COCCn1cc(NC(=O)N(CCC(N)=O)Cc2ccccc2)cn1 | -14.4% |
| O=C(CS(=O)(=O)Cc1cccc(Br)c1)Nc1cn[nH]c1 | -2.81% |
| c1cnc2nc(C3CCNCC3)[nH]c2c1 | -11.9% |
| CNCC(=O)N1CCC(c2ccnc(Nc3ccc(C)cn3)n2)C1 (configuration not stated) | -1.4% |
